Reference: PMC5218480 (PLoS ONE, 2017)

Tested on: MV-4-11 cells
Assay: Gene expression microarray analysis (Affymetrix PrimeView) and GSEA
Type: cell-based, human
Design: RFU PODN (11730768_x_at) / Fold change /veh PODN (11730768_x_at) / RFU LINC00158 (11744669_a_at) / Fold change /veh LINC00158 (11744669_a_at) / RFU DUSP10 (11751237_a_at) / Fold change /veh DUSP10 (11751237_a_at) / RFU ID3 (11757404_x_at) / Fold change /veh ID3 (11757404_x_at) / RFU PLEKHG5 (11737974_s_at) / Fold change /veh PLEKHG5 (11737974_s_at) / RFU LRRC4B (11730491_at) / Fold change /veh LRRC4B (11730491_at) / RFU GIMAP4 (11747438_a_at) / Fold change /veh GIMAP4 (11747438_a_at) / RFU KRT8 (11758183_x_at) / Fold change /veh KRT8 (11758183_x_at) / RFU CNN1 (11734310_a_at) / Fold change /veh CNN1 (11734310_a_at) / RFU VPS37D (11726825_at) / Fold change /veh VPS37D (11726825_at) / RFU C10orf10 (11716522_x_at) / Fold change /veh C10orf10 (11716522_x_at) / RFU KIR2DL2 /// KIR2DL4 /// KIR2DL5A /// KIR2DL5B /// KIR2DS1 /// KIR2DS2 /// KIR2DS3 /// KIR2DS4 /// KIR3DL3 /// KIR3DL3 /// KIR3DS1 (11738374_at) / Fold change /veh KIR2DL2 /// KIR2DL4 /// KIR2DL5A /// KIR2DL5B /// KIR2DS1 /// KIR2DS2 /// KIR2DS3 /// KIR2DS4 /// KIR3DL3 /// KIR3DL3 /// KIR3DS1 (11738374_at) / RFU C1QL1 (11718748_at) / Fold change /veh C1QL1 (11718748_at) / RFU TMPRSS4 (11747572_a_at) / Fold change /veh TMPRSS4 (11747572_a_at) / RFU HAMP (11756126_x_at) / Fold change /veh HAMP (11756126_x_at) / RFU RNFT2 (11725882_a_at) / Fold change /veh RNFT2 (11725882_a_at) / RFU NR4A2 (11747474_a_at) / Fold change /veh NR4A2 (11747474_a_at) / RFU ABCC12 (11746883_a_at) / Fold change /veh ABCC12 (11746883_a_at) / RFU TMEM136 (11760407_x_at) / Fold change /veh TMEM136 (11760407_x_at) / RFU CLDN22 /// WWC2 (11732394_at) / Fold change /veh CLDN22 /// WWC2 (11732394_at) / RFU HLA-DPB1 (11760878_x_at) / Fold change /veh HLA-DPB1 (11760878_x_at) / RFU SPINT1 (11716480_a_at) / Fold change /veh SPINT1 (11716480_a_at) / RFU GAP43 (11754022_s_at) / Fold change /veh GAP43 (11754022_s_at) / RFU A4GNT (11735810_at) / Fold change /veh A4GNT (11735810_at) / RFU PRB3 (11715151_x_at) / Fold change /veh PRB3 (11715151_x_at) / RFU TUBB4B (11761932_at) / Fold change /veh TUBB4B (11761932_at) / RFU CAPN14 (11732068_a_at) / Fold change /veh CAPN14 (11732068_a_at) / RFU TMCC2 (11721928_a_at) / Fold change /veh TMCC2 (11721928_a_at) / RFU IRGQ (11745062_a_at) / Fold change /veh IRGQ (11745062_a_at) / RFU FAM174B (11720279_a_at) / Fold change /veh FAM174B (11720279_a_at) / RFU TMPRSS4 (11748680_a_at) / Fold change /veh TMPRSS4 (11748680_a_at) / RFU FAM212B (11763350_a_at) / Fold change /veh FAM212B (11763350_a_at) / RFU PLEKHG5 (11743358_a_at) / Fold change /veh PLEKHG5 (11743358_a_at) / RFU ZSCAN30 (11745921_a_at) / Fold change /veh ZSCAN30 (11745921_a_at) / RFU CMKLR1 (11741424_a_at) / Fold change /veh CMKLR1 (11741424_a_at) / RFU LOC101060620 /// MAPK8IP1 (11723275_at) / Fold change /veh LOC101060620 /// MAPK8IP1 (11723275_at) / RFU SPTSSB (11747773_x_at) / Fold change /veh SPTSSB (11747773_x_at) / RFU PRSS12 (11739890_at) / Fold change /veh PRSS12 (11739890_at) / RFU BIN1 (11741810_x_at) / Fold change /veh BIN1 (11741810_x_at) / RFU WNT11 (11732464_a_at) / Fold change /veh WNT11 (11732464_a_at) / RFU C10orf10 (11716521_a_at) / Fold change /veh C10orf10 (11716521_a_at) / RFU C5orf56 (11738089_at) / Fold change /veh C5orf56 (11738089_at) / RFU CYB561 (11721691_x_at) / Fold change /veh CYB561 (11721691_x_at) / RFU ANKRD19P (11752326_a_at) / Fold change /veh ANKRD19P (11752326_a_at) / RFU OR2T12 /// OR2T33 /// OR2T8 (11738714_s_at) / Fold change /veh OR2T12 /// OR2T33 /// OR2T8 (11738714_s_at) / RFU VCAN (11748164_a_at) / Fold change /veh VCAN (11748164_a_at) / RFU JSRP1 (11732532_at) / Fold change /veh JSRP1 (11732532_at) / RFU KRTAP10-11 (11738290_x_at) / Fold change /veh KRTAP10-11 (11738290_x_at) / RFU MYO3A (11730013_a_at) / Fold change /veh MYO3A (11730013_a_at) / RFU EBF3 (11725865_a_at) / Fold change /veh EBF3 (11725865_a_at) / RFU CAMK2N1 (11719241_x_at) / Fold change /veh CAMK2N1 (11719241_x_at) / RFU C5orf56 (11738088_a_at) / Fold change /veh C5orf56 (11738088_a_at) / RFU OLFML3 (11715873_a_at) / Fold change /veh OLFML3 (11715873_a_at) / RFU LOC100653217 /// NTM (11731650_a_at) / Fold change /veh LOC100653217 /// NTM (11731650_a_at) / RFU MAPK11 (11762145_a_at) / Fold change /veh MAPK11 (11762145_a_at) / RFU FIZ1 (11724087_x_at) / Fold change /veh FIZ1 (11724087_x_at) / RFU OASL (11726364_x_at) / Fold change /veh OASL (11726364_x_at) / RFU SOX15 (11748057_x_at) / Fold change /veh SOX15 (11748057_x_at) / RFU CD79A (11719716_a_at) / Fold change /veh CD79A (11719716_a_at) / RFU HIST1H1D (11736915_at) / Fold change /veh HIST1H1D (11736915_at) / RFU CASKIN2 (11723855_a_at) / Fold change /veh CASKIN2 (11723855_a_at) / RFU LOC730098 (11760151_x_at) / Fold change /veh LOC730098 (11760151_x_at) / RFU OR4N2 (11742367_at) / Fold change /veh OR4N2 (11742367_at) / RFU PRRT2 (11749266_a_at) / Fold change /veh PRRT2 (11749266_a_at) / RFU SNX32 (11753110_a_at) / Fold change /veh SNX32 (11753110_a_at) / RFU CDHR5 (11726645_a_at) / Fold change /veh CDHR5 (11726645_a_at) / RFU RCAN1 (11760418_a_at) / Fold change /veh RCAN1 (11760418_a_at) / RFU FAM167A (11723789_a_at) / Fold change /veh FAM167A (11723789_a_at) / RFU FAM26E (11764081_at) / Fold change /veh FAM26E (11764081_at) / RFU ISYNA1 (11749810_s_at) / Fold change /veh ISYNA1 (11749810_s_at) / RFU ACY1 (11761880_at) / Fold change /veh ACY1 (11761880_at) / RFU 11764098_at / Fold change /veh 11764098_at / RFU SAMD14 (11745864_x_at) / Fold change /veh SAMD14 (11745864_x_at) / RFU NPB (11741838_a_at) / Fold change /veh NPB (11741838_a_at) / RFU TMPRSS6 (11731388_a_at) / Fold change /veh TMPRSS6 (11731388_a_at) / RFU KRTAP10-2 (11738614_at) / Fold change /veh KRTAP10-2 (11738614_at) / RFU ARHGAP8 /// PRR5-ARHGAP8 (11727945_x_at) / Fold change /veh ARHGAP8 /// PRR5-ARHGAP8 (11727945_x_at) / RFU KRTAP5-7 /// NADSYN1 (11734609_at) / Fold change /veh KRTAP5-7 /// NADSYN1 (11734609_at) / RFU RASL12 (11751679_a_at) / Fold change /veh RASL12 (11751679_a_at) / RFU CDKN2B (11736163_a_at) / Fold change /veh CDKN2B (11736163_a_at) / RFU PRF1 (11729649_at) / Fold change /veh PRF1 (11729649_at) / RFU, ZNF638 /// ZNF638-IT1 / Fold change vs veh, ZNF638 /// ZNF638-IT1 / RFU, PANK3 / Fold change vs veh, PANK3 / RFU, SH3YL1 / Fold change vs veh, SH3YL1 / RFU, ZEB2 / Fold change vs veh, ZEB2 / RFU, NRIP1 / Fold change vs veh, NRIP1 / RFU, PTTG1IP / Fold change vs veh, PTTG1IP / RFU, CAPN2 / Fold change vs veh, CAPN2 / RFU, MED14 / Fold change vs veh, MED14 / RFU, SNORA58 / Fold change vs veh, SNORA58 / RFU, C1orf63 / Fold change vs veh, C1orf63 / RFU, LRRFIP1 / Fold change vs veh, LRRFIP1 / RFU, NDUFAF7 / Fold change vs veh, NDUFAF7 / RFU, SLC12A2 / Fold change vs veh, SLC12A2 / RFU, IBTK / Fold change vs veh, IBTK / RFU, ESF1 / Fold change vs veh, ESF1 / Fold change vs veh, TMEM50B / RFU, TAOK1 / Fold change vs veh, TAOK1 / RFU, ACBD3 / Fold change vs veh, ACBD3 / RFU, TMA16 / Fold change vs veh, TMA16 / RFU, RWDD3 / Fold change vs veh, RWDD3 / RFU, BCAT1 / Fold change vs veh, BCAT1 / RFU, EDEM3 / Fold change vs veh, EDEM3 / RFU, TMEM33 / Fold change vs veh, TMEM33 / RFU, WDR75 / Fold change vs veh, WDR75 / RFU, AHCTF1 / Fold change vs veh, AHCTF1 / RFU, TFRC / Fold change vs veh, TFRC / RFU, ZDHHC17 / Fold change vs veh, ZDHHC17 / RFU, NOM1 / Fold change vs veh, NOM1 / RFU, ARL8B / Fold change vs veh, ARL8B / RFU, ZBTB11 / Fold change vs veh, ZBTB11 / RFU, TAMM41 / Fold change vs veh, TAMM41 / RFU, KIAA1704 /// LOC100996395 / Fold change vs veh, KIAA1704 /// LOC100996395 / RFU, ING1 / Fold change vs veh, ING1 / RFU, TRMT61B / Fold change vs veh, TRMT61B / RFU, FUBP3 / Fold change vs veh, FUBP3 / RFU, TP53 / Fold change vs veh, TP53 / RFU, TNKS2 / Fold change vs veh, TNKS2 / RFU, ZFP14 / Fold change vs veh, ZFP14 / RFU, ACTR2 / Fold change vs veh, ACTR2 / RFU, PPP3R1 / Fold change vs veh, PPP3R1 / RFU, PIK3R1 / Fold change vs veh, PIK3R1 / RFU, HNRNPA1 / Fold change vs veh, HNRNPA1 / RFU, RNF170 / Fold change vs veh, RNF170 / RFU, ZNF28 / Fold change vs veh, ZNF28 / RFU, RNGTT / Fold change vs veh, RNGTT / RFU, OGT / Fold change vs veh, OGT / RFU, BRD1 / Fold change vs veh, BRD1 / RFU, MARS / Fold change vs veh, MARS / RFU, ZNF655 / Fold change vs veh, ZNF655 / RFU, FAHD1 / Fold change vs veh, FAHD1 / RFU, BDP1 / Fold change vs veh, BDP1 / RFU, LRRCC1 / Fold change vs veh, LRRCC1 / RFU, ARID1A / Fold change vs veh, ARID1A / RFU, ZNF146 / Fold change vs veh, ZNF146 / RFU, ZNF330 / Fold change vs veh, ZNF330 / RFU, GPN3 / Fold change vs veh, GPN3 / RFU, C9orf123 / Fold change vs veh, C9orf123 / RFU, N4BP2L2 / Fold change vs veh, N4BP2L2 / RFU, ARFIP1 / Fold change vs veh, ARFIP1 / RFU, FAM179B / Fold change vs veh, FAM179B / RFU, BCL10 / Fold change vs veh, BCL10 / RFU, UHRF1BP1L / Fold change vs veh, UHRF1BP1L / RFU, BET1 / Fold change vs veh, BET1 / RFU, CNOT2 / Fold change vs veh, CNOT2 / RFU, ZNF268 / Fold change vs veh, ZNF268 / Fold change vs veh, ZNF507 / RFU, DGCR2 / Fold change vs veh, DGCR2 / RFU, WDSUB1 / Fold change vs veh, WDSUB1 / Fold change vs veh, HSP90B1 /// MIR3652 / RFU, ADSS / Fold change vs veh, ADSS / RFU, GK / Fold change vs veh, GK / RFU, ZNF148 / Fold change vs veh, ZNF148 / RFU, TAF9 / Fold change vs veh, TAF9 / RFU, SLC1A5 / Fold change vs veh, SLC1A5 / RFU, SLMO2 / Fold change vs veh, SLMO2 / RFU, ABCC4 / Fold change vs veh, ABCC4 / RFU, LOC101060439 /// RAP1B / Fold change vs veh, LOC101060439 /// RAP1B / RFU, RFX7 / Fold change vs veh, RFX7 / RFU, GTPBP10 / Fold change vs veh, GTPBP10 / RFU, CNEP1R1 / Fold change vs veh, CNEP1R1 / RFU, BIVM-ERCC5 /// ERCC5 / Fold change vs veh, BIVM-ERCC5 /// ERCC5 / RFU, ILF3 / Fold change vs veh, ILF3 / RFU 11762660_at / Fold change /veh 11762660_at / RFU VCAN (11757783_s_at) / Fold change /veh VCAN (11757783_s_at) / RFU DDX43 (11728927_at) / Fold change /veh DDX43 (11728927_at) / RFU KRT8 (11758188_x_at) / Fold change /veh KRT8 (11758188_x_at) / RFU NKD1 (11759106_at) / Fold change /veh NKD1 (11759106_at) / RFU SRD5A1 (11742802_a_at) / Fold change /veh SRD5A1 (11742802_a_at) / RFU TPSAB1 /// TPSB2 (11721975_s_at) / Fold change /veh TPSAB1 /// TPSB2 (11721975_s_at) / RFU GSTM3 (11746129_a_at) / Fold change /veh GSTM3 (11746129_a_at) / RFU IL23R (11737362_x_at) / Fold change /veh IL23R (11737362_x_at) / RFU TMEM51 (11727254_a_at) / Fold change /veh TMEM51 (11727254_a_at) / RFU PIWIL2 (11732686_x_at) / Fold change /veh PIWIL2 (11732686_x_at) / RFU ORM1 (11744905_x_at) / Fold change /veh ORM1 (11744905_x_at) / RFU CCDC152 (11743942_at) / Fold change /veh CCDC152 (11743942_at) / RFU ECM1 (11717891_a_at) / Fold change /veh ECM1 (11717891_a_at) / RFU IL23R (11748794_a_at) / Fold change /veh IL23R (11748794_a_at) / RFU TNFAIP8L3 (11732012_x_at) / Fold change /veh TNFAIP8L3 (11732012_x_at) / RFU MBOAT4 (11741988_at) / Fold change /veh MBOAT4 (11741988_at) / RFU 11764193_at / Fold change /veh 11764193_at / RFU TMEM53 (11763286_at) / Fold change /veh TMEM53 (11763286_at) / RFU MAGEB2 (11727129_at) / Fold change /veh MAGEB2 (11727129_at) / RFU TMEM200A (11744735_a_at) / Fold change /veh TMEM200A (11744735_a_at) / RFU CCDC152 (11751479_a_at) / Fold change /veh CCDC152 (11751479_a_at) / RFU FAM211A (11726209_a_at) / Fold change /veh FAM211A (11726209_a_at) / RFU RGS16 (11746705_a_at) / Fold change /veh RGS16 (11746705_a_at) / RFU VCAN (11755009_s_at) / Fold change /veh VCAN (11755009_s_at) / RFU RHOB (11743442_s_at) / Fold change /veh RHOB (11743442_s_at) / RFU RGS16 (11720943_a_at) / Fold change /veh RGS16 (11720943_a_at) / RFU RGS16 (11720944_at) / Fold change /veh RGS16 (11720944_at) / RFU, VPS4B / Fold change vs veh, VPS4B / RFU, CREB1 / Fold change vs veh, CREB1 / RFU, DNAJC13 / Fold change vs veh, DNAJC13 / RFU, GNAQ / Fold change vs veh, GNAQ / RFU, CDK5R1 / Fold change vs veh, CDK5R1 / RFU, ZRANB3 / Fold change vs veh, ZRANB3 / RFU, CUL4A / Fold change vs veh, CUL4A / RFU, CCNY / Fold change vs veh, CCNY / RFU, UFL1 / Fold change vs veh, UFL1 / RFU, COG3 / Fold change vs veh, COG3 / RFU, DIAPH2 / Fold change vs veh, DIAPH2 / RFU, SKA2 / Fold change vs veh, SKA2 / RFU, AFF3 / Fold change vs veh, AFF3 / RFU, LMF1 / Fold change vs veh, LMF1 / RFU, IPO11 / Fold change vs veh, IPO11 / RFU, DFFB / Fold change vs veh, DFFB / RFU, FOXP1 / Fold change vs veh, FOXP1 / RFU, CARD8 / Fold change vs veh, CARD8 / RFU, STRN3 / Fold change vs veh, STRN3 / RFU, ADK / Fold change vs veh, ADK / RFU, RASSF2 / Fold change vs veh, RASSF2 / RFU, WIPF1 / Fold change vs veh, WIPF1 / RFU, LARP1B / Fold change vs veh, LARP1B / RFU, RASA1 / Fold change vs veh, RASA1 / RFU, RB1 / Fold change vs veh, RB1 / RFU, PPFIA1 / Fold change vs veh, PPFIA1 / RFU, MAT2A / Fold change vs veh, MAT2A / RFU, CCT5 / Fold change vs veh, CCT5 / RFU, WDR92 / Fold change vs veh, WDR92 / RFU, CUX1 / Fold change vs veh, CUX1 / RFU, TTC7A / Fold change vs veh, TTC7A / RFU, TMEM135 / Fold change vs veh, TMEM135 / RFU, DEPTOR / Fold change vs veh, DEPTOR / RFU, CPM / Fold change vs veh, CPM / RFU, DNAJB6 / Fold change vs veh, DNAJB6 / RFU, CACNA2D3 / Fold change vs veh, CACNA2D3 / RFU, DTX4 / Fold change vs veh, DTX4 / RFU, TFCP2 / Fold change vs veh, TFCP2 / RFU, GMCL1 /// GMCL1P1 / Fold change vs veh, GMCL1 /// GMCL1P1 / RFU, AEBP2 / Fold change vs veh, AEBP2 / RFU, SNHG1 /// SNORD22 /// SNORD25 /// SNORD26 /// SNORD27 /// SNORD28 /// SNORD29 /// SNORD31 / Fold change vs veh, SNHG1 /// SNORD22 /// SNORD25 /// SNORD26 /// SNORD27 /// SNORD28 /// SNORD29 /// SNORD31 / Fold change (Aza/veh), C12orf56 (ProbeSet 11735607_a_at) / Fold change (ACY-1035/veh), C12orf56 (ProbeSet 11735607_a_at) / Fold change (Aza/veh), FGFR1OP (ProbeSet 11751329_s_at) / Fold change (ACY-1035/veh), FGFR1OP (ProbeSet 11751329_s_at) / Fold change (Aza/veh), VPS36 (ProbeSet 11739960_a_at) / Fold change (ACY-1035/veh), VPS36 (ProbeSet 11739960_a_at) / RFU SYPL1 (11715823_x_at) / Fold change /veh SYPL1 (11715823_x_at) / RFU IGFBP7 (11715501_s_at) / Fold change /veh IGFBP7 (11715501_s_at) / RFU REEP3 (11722064_at) / Fold change /veh REEP3 (11722064_at) / RFU IGLL1 (11728026_x_at) / Fold change /veh IGLL1 (11728026_x_at): dose or concentration left out as unconfirmed
Settings: MV-4-11 cells, 48 hours

Compound: Nc1ncn([C@@H]2O[C@H](CO)[C@@H](O)[C@H]2O)c(=O)n1 [azacitidine]
- RFU A4GNT (11735810_at): 14.85 RFU
